This is an account of results in US20240344241A1, “PROTEINACEOUS MOLECULES AND USES THEREFOR” (THE UNIVERSITY OF QUEENSLAND, priority 2021, published 2024).

pKi: −log10 of the molar value. Bridge positions count the residues as written; N and C are the ends. Peptide text beside a SMILES is read from it.

By pKi is commonly meant the negative decadic logarithm of the Ki, by convention in mol/L.

One experiment relates to human whole blood. Description: Activated clotting time (ACT) in human whole blood. The protocol:
(§1) The anticoagulant activity of cyclic MCoFx7 was determined in human whole blood using two assays: activated clotting time (ACT) and rotational thromboelastometry (ROTEM). In ACT assays, the clotting time (y-axis) was increased in a dose-dependent manner from the control (124 s), reaching 223 s with 20 μM MCoFx7. […] Anticoagulant activity was verified by thromboelastometry (TEM) that was measured after activation of the intrinsic pathway (INTEM) (refer to FIG. 16). […] By comparison, a single concentration of cyclic [A25P]MCoFx7 (10 μM) produced a clotting time of 500 s, similar to cyclic MCoFx7 at 10 μM (469 s).
(§2) Activated clotting time (ACT) was measured in fresh whole blood using celite tubes with the Hemochron 401 coagulation analyzer (Soma Technology, Bloomfield, CT, USA). Whole blood clot formation was recorded by ROTEM® Thromboelastometry (Haemoview Diagnostics, Brisbane, Australia) using INTEM (contact factor-initiated coagulation) and HEPTEM (contact factor-initiated coagulation with heparinase) activating reagents according to the manufacturer's instructions.

Experiment [1] concerns human blood. Description: ACT assay of blood samples from the ex vivo ECMO model. Particulars: ECMO circuit, single dose 20 μM. The protocol: (§3) The duration of effect for each treatment was also monitored by taking blood samples from the circuit over time and performing clotting assays (refer to FIG. 18). In ACT assays, a clotting time of more than 200 s was maintained for cyclic MCoFx7 over the course of the experiment (>300 s from 0.5 h-6 h).
(§4) Ex vivo ECMO circuits (Permanent Life Support [PLS] System, Maquet C P, Rastatt, Germany) consisted of a Quadrox D Oxygenator and ROTAFLOW centrifugal pump, both incorporated into a tubing set, with a tip-to-tip BIOLINE (albumin and heparin) coating. Initially, the PLS system was primed with Plasma-Lyte 148 and heated to 37.8° C. […] Inlet and outlet pressures between the membrane oxygenator were monitored using a silicone-based pressure transducer (Omega Engineering, Norwalk, CT, USA) and were recorded as the delta oxygenator pressure (P). […]
as §2

Experiment [2] deals with human blood. Description: HEPTEM assay of blood samples from the ex vivo ECMO model. The conditions noted are these: ECMO circuit, heparinase added. The protocol:
as §3, §4, §2

Another experiment deals with T1, Human β-FXIIa (Homo sapiens, UniProt P00748).
T1 construct: Human β-FXIIa was obtained from Molecular Innovations, together with human FXa, human FXIa, human α-thrombin, and human plasma kallikrein; purchased Molecular Innovations; host or cells: purified from human plasma
T1 sequence (P00748 373-615 limits assumed, other chains not shown): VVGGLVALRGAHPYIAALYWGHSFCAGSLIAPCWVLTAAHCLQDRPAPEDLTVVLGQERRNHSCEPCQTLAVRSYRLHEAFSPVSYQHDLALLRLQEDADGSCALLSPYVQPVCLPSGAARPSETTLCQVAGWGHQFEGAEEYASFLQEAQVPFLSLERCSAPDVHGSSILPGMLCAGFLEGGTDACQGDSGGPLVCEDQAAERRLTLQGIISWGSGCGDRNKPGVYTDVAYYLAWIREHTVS
Description: FXIIa competitive inhibition assay, fluorescent substrate Boc-QGR-MCA. Particulars: 0.5 nM FXIIa, 50 μM Boc-QGR-MCA; read-out: Ki for FXIIa, fluorescent substrate. The format is biochemical. In a few lines:
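Human β-FXIIa (10 nM) preincubated to equilibrium with serially diluted inhibitors at room temperature in Tris pH 8.0 with NaCl, CaCl2 and Triton X-100. Activity followed with 100 μM Ac-QRFR-pNA (KM 162 μM) at 405 nm, or for later variants 0.5 nM enzyme with 50 μM Boc-QGR-MCA (KM 187 μM) by fluorescence. Ki from Morrison fits.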

The test system of experiment [3] is human blood. In words: INTEM assay of blood samples from the ex vivo ECMO model. The conditions noted are these: ECMO circuit, single dose 20 μM. As for the experimental part:
as §3, §4, §2

Experiment [4] has as its system human whole blood, intrinsic pathway (INTEM). In words: Rotational thromboelastometry INTEM in human whole blood. The protocol:
as §1, §2

Regarding `CC[C@H](C)[C@@H]1NC(=O)CNC(=O)CNC(=O)[C@H](CC(=O)O)NC(=O)[C@H](CO)NC(=O)CNC(=O)[C@H](CO)NC(=O)CNC(=O)[C@@H]2CSSC[C@@H]3NC(=O)[C@H](CC(=O)O)NC(=O)[C@H](CO)NC(=O)[C@H](CC(=O)O)NC(=O)[C@H](CCCNC(=N)N)NC(=O)[C@H](CCCNC(=N)N)NC(=O)[C@@H]4CSSC[C@H](NC(=O)[C@H]([C@@H](C)CC)NC(=O)[C@H](CSSC[C@H](NC1=O)C(=O)N1CCC[C@H]1C(=O)N[C@@H](CCCNC(=N)N)C(=O)N[C@@H]([C@@H](C)CC)C(=O)NCC(=O)N[C@@H](CCCNC(=N)N)C(=O)N[C@@H](CC(C)C)C(=O)N4)NC(=O)[C@H](C)NC(=O)CNC(=O)[C@@H]1CCCN1C3=O)C(=O)N[C@@H](CCCNC(=N)N)C(=O)N[C@@H](C)C(=O)N[C@@H]([C@@H](C)O)C(=O)N[C@@H](CCCNC(=N)N)C(=O)N[C@@H](Cc1ccccc1)C(=O)N2` [Cyclic MCoFx7] (cyclo(ACICRATRFCGSGSDGGICPRIGRLCRRDSDCPG); disulfide 2-19, 4-26, 10-32), the “ACT clotting time versus therapeutic range (180-220 s)” value in the experiment on human whole blood (10 μM or 20 μM) is listed as “within the therapeutic range”. Also, the ACT clotting time in the experiment on human whole blood (20 μM, human whole blood) is 223 s; in the experiment on human blood [1] (from 0.5 h-6 h) it was > 300 s. The “ACT clotting time maintained over the course of the experiment” value in the experiment with human blood [1] was “more than 200 s”. Also, the HEPTEM anticoagulant activity entry in the experiment on human blood [2] was “independent of heparin”. Besides, the negative logarithm of the Ki (pKi) at Human β-FXIIa was 10.19. Also, the “INTEM anticoagulant activity, duration” value in the experiment on human blood [3] is listed as “anticoagulant activity was maintained for 6 h”. Moreover, the results for the INTEM clotting time in experiment [4] (10 μM) and in experiment [4] (20 μM) were 469 s and 521 s, respectively.
